# Experiments:
# Assay type in all cases: in vivo
# [1] = system: barnyardgrass (Echinochloa crus-galli); assay: Test A preemergence, barnyardgrass; conditions: 0 to 100 scale, 0 is no effect, 100 is complete control
# In short: (§1)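 Using a solvent/surfactant formulation, test chemicals were sprayed onto freshly seeded soil or onto 2–10 cm seedlings at the one- to two-leaf stage. Visual injury ratings on a 0–100 scale were made about 10 d later in the greenhouse.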
# kochia (Kochia scoparia) [2] = assay: Test A preemergence, kochia; conditions: 0 to 100 scale, 0 is no effect, 100 is complete control
# In short: as §1
# [3] = system: ragweed (common ragweed, Ambrosia elatior); assay: Test A preemergence, ragweed; conditions: 0 to 100 scale, 0 is no effect, 100 is complete control
# In short: as §1
# [4] = system: ryegrass, Italian (Lolium multiflorum); assay: Test A preemergence, Italian ryegrass; conditions: 0 to 100 scale, 0 is no effect, 100 is complete control
# In short: as §1
# [5] = system: foxtail, giant (Setaria faberii); assay: Test A preemergence, giant foxtail; conditions: 0 to 100 scale, 0 is no effect, 100 is complete control
# In short: as §1
# [6] = system: pigweed (Amaranthus retroflexus); assay: Test A preemergence, pigweed; conditions: 0 to 100 scale, 0 is no effect, 100 is complete control
# In short: as §1
# [7] = system: barnyardgrass (Echinochloa crus-galli); assay: Test A postemergence, barnyardgrass; conditions: 0 to 100 scale; for Plant response rating, Barnyardgrass: 0 no effect, 100 complete control
# In short: as §1
# kochia (Kochia scoparia) [8] = assay: Test A postemergence, kochia; conditions: 0 to 100 scale; for Plant response rating, Kochia: 0 no effect, 100 complete control
# In short: as §1
# [9] = system: ragweed (common ragweed, Ambrosia elatior); assay: Test A postemergence, ragweed; conditions: 0 to 100 scale; for Plant response rating, Ragweed: 0 no effect, 100 complete control
# In short: as §1
# [10] = system: ryegrass, Italian (Lolium multiflorum); assay: Test A postemergence, Italian ryegrass; conditions: 0 to 100 scale; for Plant response rating, Ryegrass, Italian: 0 no effect, 100 complete control
# In short: as §1
# [11] = system: foxtail, giant (Setaria faberii); assay: Test A postemergence, giant foxtail; conditions: 0 to 100 scale; for Plant response rating, Foxtail, Giant: 0 no effect, 100 complete control
# In short: as §1
# [12] = system: pigweed (Amaranthus retroflexus); assay: Test A postemergence, pigweed; conditions: 0 to 100 scale; for Plant response rating, Pigweed: 0 no effect, 100 complete control
# In short: as §1
# [13] = system: wheat (Triticum aestivum); assay: Test A postemergence, wheat; conditions: 0 to 100 scale; for Plant response rating, Wheat: 0 no effect, 100 complete control
# In short: as §1
# corn (Zea mays) = assay: Test A postemergence, corn; conditions: 0 to 100 scale; for Plant response rating, Corn: 0 no effect, 100 complete control
# In short: as §1
# [14] = system: blackgrass (Alopecurus myosuroides); assay: Test A postemergence, blackgrass; conditions: 0 to 100 scale; for Plant response rating, Blackgrass: 0 no effect, 100 complete control
# In short: as §1
# [15] = system: galium (catchweed bedstraw, Galium aparine); assay: Test A postemergence, galium; conditions: 0 to 100 scale; for Plant response rating, Galium: 0 no effect, 100 complete control
# In short: as §1
# rice (Oryza sativa) = assay: Test B flooded paddy test, rice; conditions: Flood, 250 g ai/ha, applied to paddy water, 2-leaf stage, visual evaluation after 13 to 15 d
# In short: (§2)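 Visual injury scores run from 0 (no effect) to 100 (complete control), assigned by comparison with controls 13 to 15 d after treatment. Treatment went into floodwater standing 3 cm over the soil of pots holding 2-leaf plants.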
# [16] = system: sedge, umbrella (small-flower umbrella sedge, Cyperus difformis); assay: Test B flooded paddy test, umbrella sedge; conditions: Flood, 250 g ai/ha, applied to paddy water, 2-leaf stage, visual evaluation after 13 to 15 d
# In short: as §2
# [17] = system: ducksalad (Heteranthera limosa); assay: Test B flooded paddy test, ducksalad; conditions: Flood, 250 g ai/ha, applied to paddy water, 2-leaf stage, visual evaluation after 13 to 15 d
# In short: as §2
# [18] = system: barnyardgrass (Echinochloa crus-galli); assay: Test B flooded paddy test, barnyardgrass; conditions: Flood, 250 g ai/ha, applied to paddy water, 2-leaf stage, visual evaluation after 13 to 15 d
# In short: as §2
# [19] = 500 g ai/ha, 0 is no effect, 100 is complete control
Structure (SMILES),Barnyardgrass plant response rating ([1]; 125 g ai/ha),Barnyardgrass plant response rating ([1]; 500 g ai/ha),Kochia plant response rating (kochia (Kochia scoparia) [2]; 125 g ai/ha),Kochia plant response rating (kochia (Kochia scoparia) [2]; 500 g ai/ha),Ragweed plant response rating ([3]; 125 g ai/ha),Ragweed plant response rating ([3]; 500 g ai/ha),"Ryegrass, Italian plant response rating ([4]; 125 g ai/ha)","Ryegrass, Italian plant response rating ([4]; 500 g ai/ha)","Foxtail, Giant plant response rating ([5]; 125 g ai/ha)","Foxtail, Giant plant response rating ([5]; 500 g ai/ha)",Pigweed plant response rating ([6]; 125 g ai/ha),Pigweed plant response rating ([6]; 500 g ai/ha),"Plant response rating, Barnyardgrass ([7]; 125 g ai/ha)","Plant response rating, Kochia (kochia (Kochia scoparia) [8]; 125 g ai/ha)","Plant response rating, Ragweed ([9]; 125 g ai/ha)","Plant response rating, Ryegrass, Italian ([10]; 125 g ai/ha)","Plant response rating, Foxtail, Giant ([11]; 125 g ai/ha)","Plant response rating, Pigweed ([12]; 125 g ai/ha)","Plant response rating, Wheat ([13]; 125 g ai/ha)","Plant response rating, Corn (corn (Zea mays); 125 g ai/ha)",other results
CC[C@H](Nc1ncc(C(F)(F)F)c(N)n1)c1cc2ccc(F)cc2s1 [Compound 49],0,0,0,0,0,0,0,0,0,0,0,0,0,0,0,0,0,0,0,0,"Barnyardgrass plant response rating [7, 19]: 0; Kochia plant response rating (kochia (Kochia scoparia) [8]; [19]): 0; Ragweed plant response rating [9, 19]: 0; Ryegrass, Italian plant response rating [10, 19]: 0; Foxtail, Giant plant response rating [11, 19]: 10; Pigweed plant response rating [12, 19]: 50; Wheat plant response rating [13, 19]: 0; Corn plant response rating (corn (Zea mays); [19]): 0; Plant response rating, Blackgrass ([14]; 125 g ai/ha): 0; Blackgrass plant response rating [14, 19]: 0; Plant response rating, Galium ([15]; 125 g ai/ha): 0; Galium plant response rating [15, 19]: 0; Plant response rating, Rice (0 to 100 scale, 0 is no effect, 100 is complete control) (rice (Oryza sativa)): 0; Plant response rating, Sedge, Umbrella (0 to 100 scale, 0 is no effect, 100 is complete control) [16]: 0; Plant response rating, Ducksalad (0 to 100 scale, 0 is no effect, 100 is complete control) [17]: 0; Plant response rating, Barnyardgrass (0 to 100 scale, 0 is no effect, 100 is complete control) [18]: 0"
CC(Nc1ncc([N+](=O)[O-])c(N)n1)c1cc2ccccc2s1 (stereo not drawn) [Compound 99],40,90,0,90,90,100,20,80,70,100,40,100,30,50,20,0,10,50,0,0,"Plant response rating, Barnyardgrass ([7]; 500 g ai/ha): 70; Plant response rating, Kochia (kochia (Kochia scoparia) [8]; 500 g ai/ha): 80; Plant response rating, Ragweed ([9]; 500 g ai/ha): 80; Plant response rating, Ryegrass, Italian ([10]; 500 g ai/ha): 40; Plant response rating, Foxtail, Giant ([11]; 500 g ai/ha): 60; Plant response rating, Pigweed ([12]; 500 g ai/ha): 70; Plant response rating, Wheat ([13]; 500 g ai/ha): 0; Plant response rating, Corn (corn (Zea mays); 500 g ai/ha): 30; Plant response rating, Blackgrass ([14]; 125 g ai/ha): 0; Plant response rating, Blackgrass ([14]; 500 g ai/ha): 0; Plant response rating, Galium ([15]; 125 g ai/ha): 20; Plant response rating, Galium ([15]; 500 g ai/ha): 70; Plant response rating, Rice (0 to 100 scale, 0 is no effect, 100 is complete control) (rice (Oryza sativa)): 0; Plant response rating, Sedge, Umbrella (0 to 100 scale, 0 is no effect, 100 is complete control) [16]: 0; Plant response rating, Ducksalad (0 to 100 scale, 0 is no effect, 100 is complete control) [17]: 0; Plant response rating, Barnyardgrass (0 to 100 scale, 0 is no effect, 100 is complete control) [18]: 0"

# From patent US20220119354A1, “DIAMINO-SUBSTITUTED PYRIDINES AND PYRIMIDINES AS HERBICIDES” (FMC Corporation, priority 2019, published 2022)
